Experimental data taken from patent US20220304950A1, “[…] THE TREATMENT OF PATIENTS WITH MAJOR DEPRESSIVE DISORDER, INCLUDING SUICIDALITY” (JANSSEN PHARMACEUTICALS, INC., priority 2019, published 2022).

Tests used:
Assay type in all cases: in vivo, human
[1] = tested on: adult patients with MDD assessed to be at imminent risk for suicide; test: Treatment disposition, Study 1 (Example 4); details: Esk 84 mg + SOC, double-blind phase, all randomized
Procedure: A total of 270 subjects were screened across 51 sites in 10 countries throughout the study period. Of those, 226 subjects were randomized to 1 of 2 treatment groups in a 1:1 ratio (114 in esketamine 84 mg+SOC and 112 in placebo+SOC). The randomization was stratified by study center and by the physician's assessment of the participant's need of standard of care antidepressant treatment prior to randomization on Day 1 (i.e., antidepressant monotherapy or antidepressant plus augmentation therapy).

[2] = tested on: adult patients with MDD assessed to be at imminent risk for suicide; test: CGI-SS-R subgroup analysis by prior suicide attempt, Examples 4 and 5; details: 24 hours after the first dose
Text: FIG. 17 is a forest plot for the prior suicide attempt sub-group analysis using CGI-SS-R for Examples 4 and 5.
In certain aspects, the disclosure relates to methods for reducing symptoms of major depressive disorder, including suicidality, in a human patient assessed to be at imminent risk for suicide comprising the administration of esketamine in addition to standard of care treatment. As reflected in the reported data, for depressive symptoms, the treatment differences favored the administration of esketamine plus standard of care treatment over standard of care treatment alone. In addition, treatment differences between patients that previously attempted suicide (attempters) and those that had not (non-attempters) were also present (see, e.g., data reflected in FIGS. 9-17). […] Improvement in this population is of clinical relevance considering that prior suicide attempt has been identified as the single most important predictor/risk factor for suicide in subjects with MDD.

[3] = tested on: adult patients with MDD assessed to be at imminent risk for suicide; test: MADRS total score, Study 1 (Example 4); details: for MADRS total score change, Diff. of LS Means (SE) vs placebo + SOC: ANCOVA LOCF; for MADRS total score change, LS mean difference Testing-Reference (MMRM): Esk 84 mg + SOC minus placebo + SOC; for MADRS total score, change from baseline to Day 2 (LOCF), mean (SD): negative = improvement
Text: The primary efficacy evaluation will be the MADRS total score. The MADRS will be performed using the Structured Interview Guide for the Montgomery Asberg Depression Rating Scale. The MADRS is a clinician-rated scale designed to be used in subjects with MDD to measure depression severity and detect changes due to antidepressant treatment. The test consists of 10 items, each of which is scored from 0 (item not present or normal) to 6 (severe or continuous presence of the symptoms), for a total possible score of 60. Higher scores represent a more severe condition. The MADRS evaluates apparent sadness, reported sadness, inner tension, sleep, appetite, concentration, lassitude, interest level, pessimistic thoughts, and suicidal thoughts.
The typical recall period for the MADRS is 7 days. In this study, the MADRS will also be administered using a since last assessment recall, a 4-hour recall on Day 1 and Day 25 postdose, and a 24-hour recall on Day 2. For the MADRS performed at 4 hours postdose on Days 1 and 25, the MADRS scores for the sleep item recorded predose on the same day will be carried forward.
The primary efficacy analyses are based on the full efficacy analysis set which is defined as all randomized subjects who received at least 1 dose of double-blind study medication and have both a baseline and a post-baseline evaluation for the Montgomery Xsberg Depression Rating Scale (MADRS) total score or Clinical Global Impression-Severity of Suicidality-Revised (CGI-SS-R).
MADRS consists of 10 items that cover all of the core depressive symptoms: each item is scored from 0 (symptom is not present or is normal) to 6 (severe or continuous presence of the symptom). A total score (0 to 60) is calculated by summing the scores of all 10 items. A higher score represents a more severe condition.

[4] = Esk 84 mg + SOC, 24 hours post first dose
[5] = Esk 84 mg + SOC, 24 hours post first dose, full efficacy analysis set

CN[C@]1(c2ccccc2Cl)CCCCC1=O [esketamine, (S)-2-(2-chlorophenyl)-2-(methylamino)cyclohexanone]
Discontinuation due to adverse event, subjects % [1]: 4.4%
Discontinuation due to adverse event, subjects n [1]: 5
Odds ratio (95% CrI) for an improved CGI-SS-R score relative to placebo+SOC ([2]; subjects with history of prior suicide attempt (FIG. 17)): 2.09 (1.06; 4.23)
Odds ratio (95% CrI) for an improved CGI-SS-R score relative to placebo+SOC ([2]; subpopulation without prior suicide attempt (FIG. 17)): 1.14 (0.46; 2.83)
Effect size for the primary endpoint (MADRS) ([3]; 24 hours post first dose): 0.34
MADRS total score change, Diff. of LS Means (SE) vs placebo + SOC ([3]; 24 hours post first dose): −3.8 (1.39)
MADRS total score change, Diff. of LS Means (SE) vs placebo + SOC ([3]; 24 hours post first dose, listed as Esk): −3.8
MADRS total score, mean change from baseline (SD) ([3]; ESK+SOC): −16.4 (11.95)
MADRS total score change, LS mean difference Testing-Reference (MMRM) ([3]; Day 1 (DB): 4 H): −2.6
MADRS total score change, LS mean difference Testing-Reference (MMRM) ([3]; Day 2 (DB)): −3.7
MADRS total score change, LS mean difference Testing-Reference (MMRM) ([3]; Day 4 (DB)): −4.6
MADRS total score change, LS mean difference Testing-Reference (MMRM) ([3]; Day 8 (DB)): −2.5
MADRS total score change, LS mean difference Testing-Reference (MMRM) ([3]; Day 11 (DB)): −2.8
MADRS total score change, LS mean difference Testing-Reference (MMRM) ([3]; Day 15 (DB)): −1.5
MADRS total score change, LS mean difference Testing-Reference (MMRM) ([3]; Day 18 (DB)): −2.3
MADRS total score change, LS mean difference Testing-Reference (MMRM) ([3]; Day 22 (DB)): −3.2
MADRS total score change, LS mean difference Testing-Reference (MMRM) ([3]; Day 25 (DB): 4 H): −4.1
MADRS total score change, LS mean difference Testing-Reference (MMRM) ([3]; Day 25 (DB): predose): −2.6
MADRS total score, change from baseline to Day 2 (LOCF), median [3, 4]: −15.0
MADRS total score, Day 2 (DB) LOCF, mean [3, 5]: 24.7
MADRS total score, Day 2 (DB) LOCF, median [3, 5]: 26.0
MADRS total score, change from baseline to Day 2 (LOCF), mean (SD) [3, 4]: −16.4 (11.95)
MADRS total score, change from baseline to Day 2 (LOCF), mean (SD) ([3]; Esk 84 mg + SOC, 24 hours post first dose, listed as Esk): −16.4
MADRS total score change from baseline, LS mean (MMRM observed case) ([3]; Esk 84 mg + SOC, Day 1 (DB): 4 H): −12.8
MADRS total score change from baseline, LS mean (MMRM observed case) ([3]; Esk 84 mg + SOC, Day 2 (DB)): −15.7
MADRS total score change from baseline, LS mean (MMRM observed case) ([3]; Esk 84 mg + SOC, Day 4 (DB)): −18.3
MADRS total score change from baseline, LS mean (MMRM observed case) ([3]; Esk 84 mg + SOC, Day 8 (DB)): −19.0
MADRS total score change from baseline, LS mean (MMRM observed case) ([3]; Esk 84 mg + SOC, Day 11 (DB)): −20.8
MADRS total score change from baseline, LS mean (MMRM observed case) ([3]; Esk 84 mg + SOC, Day 15 (DB)): −21.6
MADRS total score change from baseline, LS mean (MMRM observed case) ([3]; Esk 84 mg + SOC, Day 18 (DB)): −23.1
MADRS total score change from baseline, LS mean (MMRM observed case) ([3]; Esk 84 mg + SOC, Day 22 (DB)): −23.5
MADRS total score change from baseline, LS mean (MMRM observed case) ([3]; Esk 84 mg + SOC, Day 25 (DB): 4 H): −28.8
MADRS total score change from baseline, LS mean (MMRM observed case) ([3]; Esk 84 mg + SOC, Day 25 (DB): predose): −24.3
